Test results reported in EP0114387A1, “Bis-guanidine compound salts, their preparation and microbicidal use” (HOECHST AKTIENGESELLSCHAFT, priority 1982, dated 1984).
≈ marks a conversion by molar mass, not a printed value. Where two headings read alike, the source gives them in different places.

Experiments:
Experiment in all cases: Microbicidal activity, minimum inhibitory concentration to kill 10^6 germs per ml
Type in all cases: cell-based
Settings in all cases: room temperature, 10^6 Keime pro ml, read-out: minimale Hemmkonzentration
[1] = system: Desulfovibrio desulfuricans 85
Experimental: (§1) Die mikrobiozide Wirkung der erfindungsgemäßen Verbindungen zeigt Tabelle I (µg Wirkstoff/ml Wasser; Kontaktzeit 24 und 48 h; Raumtemperatur). Die angegebenen Zahlen bedeuten die minimalen Hemmkonzentrationen, um die vorgelegte Keimzahl von 10^6 Keimen pro ml abzutöten.

Pseudomonas aeruginosa = system: Pseudomonas aeruginosa
Experimental: as §1

Proteus mirabilis = system: Proteus mirabilis
Experimental: as §1

Candida albicans = system: Candida albicans
Experimental: as §1

Escherichia coli = system: Escherichia coli
Experimental: as §1

Aspergillus niger = system: Aspergillus niger
Experimental: as §1

[2] = system: Desulfovibrio desulfuricans 39
Experimental: as §1

Klebsiella pneumoniae = system: Klebsiella pneumoniae
Experimental: as §1

Staphylococcus aureus = system: Staphylococcus aureus
Experimental: as §1

CCCCCCCCCCN(CCCNC(=N)N)CCCNC(=N)N [Beispiel 3]
MIC ([1]; contact time 24 h): 7.8 µg/mL (≈ 21.9 µM)
MIC ([1]; contact time 48 h): 7.8 µg/mL (≈ 21.9 µM)
MIC (Pseudomonas aeruginosa; contact time 24 h): 500 µg/mL (≈ 1410 µM)
MIC (Pseudomonas aeruginosa; contact time 48 h): 62.5 µg/mL (≈ 176 µM)
MIC (Proteus mirabilis; contact time 24 h): 250 µg/mL (≈ 703 µM)
MIC (Proteus mirabilis; contact time 48 h): 62.5 µg/mL (≈ 176 µM)
MIC (Candida albicans; contact time 24 h): 250 µg/mL (≈ 703 µM)
MIC (Candida albicans; contact time 48 h): 62.5 µg/mL (≈ 176 µM)
MIC (Escherichia coli; contact time 24 h): 250 µg/mL (≈ 703 µM)
MIC (Escherichia coli; contact time 48 h): 62.5 µg/mL (≈ 176 µM)
MIC (Aspergillus niger; contact time 24 h): > 1000 µg/mL
MIC (Aspergillus niger; contact time 48 h): > 1000 µg/mL
MIC ([2]; contact time 24 h): 15.6 µg/mL (≈ 43.9 µM)
MIC ([2]; contact time 48 h): 7.8 µg/mL (≈ 21.9 µM)
MIC (Klebsiella pneumoniae; contact time 24 h): 500 µg/mL (≈ 1410 µM)
MIC (Klebsiella pneumoniae; contact time 48 h): 62.5 µg/mL (≈ 176 µM)
MIC (Staphylococcus aureus; contact time 24 h): 250 µg/mL (≈ 703 µM)
MIC (Staphylococcus aureus; contact time 48 h): 62.5 µg/mL (≈ 176 µM)
